Reference: patent US20260068886A1, “COMPOSITIONS AND METHODS FOR TARGETED INHIBITION AND DEGRADATION OF PROTEINS IN AN INSECT CELL” (Oerth Bio LLC, priority 2022, published 2026)
“Also recorded” adds a separate entry of the source.

How the values were obtained:
FKBP-GFP = test: sfVHL mediated FKBP degradation in Sf9 cells expressing FKBP-GFP-P2A-RFP (fluorescence microscopy); format: cell-based
Protocol: FIG. 2 presents graphs showing the FKBP-GFP to RFP signal ratio when treated with dTAG-V1 (dose curve) and Bortezomib (1 or 10 μM).
FIG. 3 presents microscopy images showing the data plotted in the graphs of FIG. 2. The images are of dTAG-V1 treated Sf9 cells expressing FKBP-GFP-P2A-RFP observed in Brightfield, green fluorescent protein and red fluorescent protein excitation wavelengths.
Sf9 cells were seeded into individual wells of 6-well sterile tissue culture plates (2×10^6 cells per well) with 2 mL fresh Sf900 III serum-free medium prior to the assay. The Sf9 cells were transfected with a plasmid expressing FKBP-GFP-P2A-RFP. Plasmid construct (in TE buffer) was aliquoted into a sterile Eppendorf microcentrifuge tube, with fresh sSf900 III medium added to each Plasmid. Cellfectin II reagent (Life Technologies, Carlsbad, CA) was then added to the transfection mixture, and the tubes were inverted to mix and incubated at room temperature for 30 minutes. All media was removed from each well just prior to the addition of the transfection mixture. Complete transfection mixtures were added to cells dropwise using a P1000 pipette with sterile filter tips. Cells overlayed with transfection mixtures were incubated at 27° C. for 4 hours. Following 4 hours of incubation time, transfection mixtures were removed and replaced with 2 mL of fresh complete medium per well (Sf900 III). Cells were allowed to incubate at 27° C. for 96 hours to allow expression from the transfected plasmid. After construct expression, cells are harvested for further experiments. Cells were detached using a P1000 pipette with sterile filter tips. Cells were resuspended in fresh Sf900 III medium. Transfected Sf9 cells were seeded into individual wells of 96-well sterile tissue culture plates (1×10^6 cells per well) with 0.1 mL fresh Sf900 III serum-free medium. Cells were then supplemented with a 10× stock of the indicated compounds (dTAGV1, dTAG-V1-NEG, Bortezomib). Protein levels were finally analyzed using Carl Zeiss microscopy and FIJI image analysis.

[1] = tested on: MBP-FKBP-Hibit-His6 / sfVHL:sfElonginB/C+CUL2/RBX1; test: in vitro ubiquitination of MBP-FKBP-Hibit-His6 by sfVHL mediated by dTAGV-1 (Western blot, anti-His6); format: biochemical; conditions: sfVHL:sfElonginB/C + human CUL2/RBX1, E1, E2, ATP, ubiquitin; range of concentrations; room temperature
Description: Lanes 1-4 and 5-8 are replicates of dose dependent dTAGV-1 dependent ubiquitination of MBP-FKBP-HIbit by sfVHL in vitro. In vitro ubiquitination is sfVHL dependent. No ubiquitination of MBP-FKBP-Hibit is observed in the absence of sfVHL (Lanes 9-16).
To assess the ability of sfVHL to act as a CUL2 adaptor protein en route to ubiquitination, sfVHL was expressed and purified recombinantly from E. coli as a complex with sfElonginB and C. […] The intensity and number of resolved bands observed, each indicating a distinct ubiquitination pattern of MBP-FKBP-Hibit-His6, was dependent on the dTAGV-1 concentration in the preparation. […] Further, ubiquitination as indicated by the complex band pattern above the MBP-FKBP-Hibit-His6 protein, was only observed when sfVHL:sfElonginB/C+CUL2/RBX1 was present confirming that the observed ubiquitination is PROTAC and sfVHL:sfElonginB/D+CUL2/RBX1 complex dependent.
To assess the ability of sfVHL to act as a CUL2 adaptor protein en route to ubiquitination, sfVHL was expressed and purified recombinantly from E. coli as a complex with sfElonginB and C. […] Further, ubiquitination was only observed when sfVHL:sfElonginB/C+CUL2/RBX1 was present confirming that MBP-FKBP-Hibit-His6 ubiquitination is PROTAC and sfVHL:sfElonginB/D+CUL2/RBX1 complex dependent.

## CC(C)C[C@H](NC(=O)[C@H](Cc1ccccc1)NC(=O)c1cnccn1)B(O)O [bortezomib, Bortezomib]
FKBP-GFP; added together with dTAG-V1 (1 or 10 μM)
  effect on dTAG-V1 dependent reduction of GFP signal: prevents the dTAG-V1 dependent reduction of GFP signal

## CC[C@H](C(=O)N1CCCC[C@H]1C(=O)O[C@H](CCc1ccc(OC)c(OC)c1)c1ccccc1OCC(=O)NCCCCCCC(=O)N[C@H](C(=O)N1C[C@@H](O)C[C@@H]1C(=O)N[C@@H](C)c1ccc(-c2scnc2C)cc1)C(C)(C)C)c1cc(OC)c(OC)c(OC)c1 [dTAG-V1-NEG]
FKBP-GFP; 24 hours of incubation
  GFP fluorescence (FKBP-GFP): no decrease in green fluorescent protein is observed

## CC[C@H](C(=O)N1CCCC[C@H]1C(=O)O[C@H](CCc1ccc(OC)c(OC)c1)c1ccccc1OCC(=O)NCCCCCCC(=O)N[C@H](C(=O)N1C[C@H](O)C[C@H]1C(=O)N[C@@H](C)c1ccc(-c2scnc2C)cc1)C(C)(C)C)c1cc(OC)c(OC)c(OC)c1 [dTAG-V1]
FKBP-GFP; 24 hours of incubation
  GFP fluorescence (FKBP-GFP): significantly decreased
  RFP signal: remains unchanged
  concentration of optimal decrease of GFP fluorescence: ~100 nM

## CC[C@H](C(=O)N1CCCC[C@H]1C(=O)O[C@H](CCc1ccc(OC)c(OC)c1)c1ccccc1OCC(=O)NCCCCCCC(=O)N[C@H](C(=O)N1C[C@H](O)C[C@H]1C(=O)N[C@@H](C)c1ccc(-c2scnc2C)cc1)C(C)(C)C)c1cc(OC)c(OC)c(OC)c1 [dTAGV-1]
[1]
  ubiquitination of MBP-FKBP-Hibit-His6: PROTAC mediated mono- and poly-ubiquitination of the protein; also recorded: observed in the presence of dTAGV-1 in a dose dependent manner; also recorded: FKBP substrate is ubiquitinated in vitro
